What was measured:
[1] = cited from earlier work
[2] = Stability of 4-EPR internal standard solution stored in the refrigerator; format: physicochemical; conditions: six months
Experimental: Assay is by high pressure liquid chromatography using a Waters HPLC System consisting of a Model 6000A solvent delivery system with a Model 440 UV absorbance detector (365 nm filter), and either a Model U6K injector (2 ml sample loop) or a Waters Intelligent Sample Processor (WISP™). […] The column is a 10 cm×4.6 mm (i.d.) Brownlee Labs RP-18 Spheri-5 (5μ) stainless steel column equipped with a 3 cm×4.6 mm (i.d.) Brownlee Labs RP-18 (10μ) stainless steel guard column. The mobile phase is acetonitrile:water:glacial acetic acid (75:23:2, v/v/v) and is prepared in 2 liter quantities. The components of the mobile phase are mixed together, filtered through a 5 μm Millipore® filter apparatus and degassed under vacuum for one-half hour while stirring. The internal standard for the assay is N-(4-ethoxyphenyl)retinamide (4-EPR). […]
The procedure of Example 1 is followed using a 4 -EPR internal standard containing 100 μg/ml which is prepared by weighing 10.0 mg of 4-EPR into a 100 ml volumetric flask and bringing to volume with methanol. A 1/2000 dilution of this stock solution is made by transferring 0.1 ml of 100 μg/ml 4-EPR solution into a 200 ml volumetric flask and bringing to volume with methanol. The resulting solution contains 50 ng/ml of 4-EPR. […] For the assay, a 1.0 ml aliquot of plasma is transferred to a 15 ml screw-cap conical bottomed glass centrifuge tube. […]

[3] = one formulation of HPR, 5 mg/kg, rats, cited from earlier work
[4] = cited from earlier work; remark: listed apart in the source
[5] = Bioavailability of HPR in vivo (general statements); conditions: small particle size of the HPR
[6] = tested on: mammary cancer; conditions: rats, induced with N-nitroso-N-methyl urea; cited from earlier work
[7] = tested on: rats; conditions: oral; cited from earlier work

Compound: CC1=C(/C=C/C(C)=C/C=C/C(C)=C\C(=O)O)C(C)(C)CCC1 [isotretinoin]
- Effect of food intake on bioavailability [1]: affected by food intake

Compound: CCOc1ccc(NC(=O)C=C(C)C=CC=C(C)C=CC2=C(C)CCCC2(C)C)cc1 [Formulation 4-EPR, N-(4-ethoxyphenyl)retinamide]
- Stability of 4-EPR solution ([2]; 50 ng/ml in methanol): without signs of decomposition
- Stability of 4-EPR solution ([2]; 500 ng/ml in acetonitrile): without signs of decomposition

Compound: CC1=C(/C=C/C(C)=C/C=C/C(C)=C/C(=O)Nc2ccc(O)cc2)C(C)(C)CCC1 [HPR, N-(4-Hydroxyphenyl)-all-trans-retinamide]
- Half-life of elimination ([3]; oral): 12 h
- Oral absorption ([3]; oral): incompletely absorbed after oral administration
- Elimination [3]: eliminated slowly
- Solubility in water [4]: virtually insoluble in water
- Effect of small particle size on bioavailability [5]: tends to aid bioavailability
- Protection against mammary cancer [6]: protects against mammary cancer in rats
- Toxicity relative to retinyl acetate and retinoic acid [7]: less toxic when given orally to rats then retinyl acetate and retinoic acid
